Measurements from patent publication US20030165582A1, “Preparations that contain an extract of the plant pistia stratiotes” (priority 2000, published 2003).

Tested on: human adipocytes
Experiment: Lipolytic activity: glycerol released from isolated adipocytes
Assay type: cell-based
Conditions: 90 minutes at 37° C., reference value=0
Procedure: Method: The adipocytes were isolated from human subcutaneous tissue by the standard Rodbell method (J. of Biolog. Chem.; 1964, 239, 375-380). The extract of Examples 1 to 3 each with two extracts (batches A and B) and the comparison substances were dissolved in a Hanks reference medium with a particular salt concentration (Cell and Tissue Culture, Ed: J. Paul, Churchill and Livingstone, 1975, page 484) and then contacted with the isolated adipocytes for 90 minutes at 37° C. Two to six adipocyte preparations were investigated. The percentage increase in glycerol released was spectrophotometrically determined in the supernatant of the medium by the Carpéné method (J. de Pharmacologie; 1981; 12;219-224).

Structure (SMILES) | % Increase in glycerol released (1.0 mM) [%] | % Increase in glycerol released (0.1 μM) [%]
Cn1c(=O)c2[nH]cnc2n(C)c1=O [Theophylline] | 187 | 
CC(C)NCC(O)c1ccc(O)c(O)c1 (centres unmarked) [Isoprenalin] |  | 129
